“Also recorded” adds a separate entry of the source.
What was measured:
isolated optic nerve = assay: Simulated ischemia (OGD) in isolated optic nerves, LDH release; parameters: species or system Sprague Dawley rats; conditions: 1 h ischemia with iodoacetate + 2 h reperfusion; MTA 100-300 μM
Experimental: Ischemic damage was induced by substituting […] and adding 1 mM of the glyocolytic blocker iodoacetate (1 mM) for 1 h followed by 2 h of reperfusion in […] aCSF. Optic nerves during ischemia and reperfusion were incubated with vehicle, for controls, and with MTA or glutamate receptor antagonists, and subsequently processed for LDH release assay. The results are the mean±SEM of at least three different experiments performed in duplicate.
Cell viability in oligodendrocyte cultures was assayed after 24 h of exposure to MTA (1 μM to 3 mM) calcein-AM assays respectively followed by fluorimetry measurements (Synergy-HT). Oligodendrocyte protection from excitotoxicity and optic nerve damage after ischemia (1 hour+2 hours reperfusion) were examined using lactate dehydrogenase release assays in the presence or absence of MTA (100-300 μM for 3 hours).

caspase 3 activity = assay: NMDA-mediated increase in caspase 3 activity in mixed neuronal-glial culture; format: cell-based, Sprague-Dawley rat; conditions: NMDA 300 μM, MTA 250 μM or MK-801 10 μM
Experimental: Primary cultures of brain cortical neurons and glia were essentially prepared as described previously (Bruno et al., 2001, Eur. J. Neurosci., 13:1469-1478). The fronto-lateral cortical lobes were dissected out of Sprague-Dawley embryonic day 17 foetuses and were mechanically dissociated in Hanks' balanced solution. The cortical lobes were triturated by aspirating 7-10 times using a Pasteur pipette with a flame-narrowed tip. […]
Cortical neurons or mixed cortical neurons and glia were plated on poly-L-lysine-coated 6-well culture plates and after 7 DIV, cells were treated with vehicle or NMDA (300 μM) for different periods of time. […] Extracts were then centrifuged at 5,000×g for 10 min at 4° C., and protein content was determined by using the BCA protein assay according to the manufacturer instructions. Cell extracts (40 μg of protein) were incubated in reaction buffer (25 mM Hepes, 10% sucrose, 0.1% CHAPS, 10 mM DTT) containing 50 μM fluorescence substrate Z-DEVD-AFC at 37° C. for 1 h. Cleavage of the AFC fluorophore was determined in a spectrofluorometer at excitation wavelength of 400 nm and fluorescence was detected at an emission wavelength of 505 nm. Caspase 3 activity was expressed as units of fluorescence/mg of protein/h (Posadas et al., 2009, Pharm. Res., In press).

| Compound | OGD/ischemia-induced damage in isolated optic nerve (LDH release) (isolated optic nerve) | protection against NMDA-induced caspase 3 activity (caspase 3 activity) |
| --- | --- | --- |
| N[C@H](CCCP(=O)(O)O)C(=O)O [APV, (2R)-amino-5-phosphonovaleric acid] | reduced; also recorded: attenuated |  |
| N#Cc1cc2c(cc1[N+](=O)[O-])=NC(=O)C(=O)N=2 [CNQX, 6-cyano-7-nitro-quinoxaline-2,3-dione] | reduced; also recorded: attenuated |  |
| C[C@]12N[C@H](Cc3ccccc31)c1ccccc12 [MK-801, reference compound] |  | neuroprotective action |

Source: US20120083464A1, “NEUROPROTECTIVE PROPERTIES OF 5'-METHYLTHIOADENOSINE” (priority 2009, published 2012)
